One test addresses T1, human androgen receptor (Homo sapiens, UniProt P10275).
T1 construct: expressed in transfected cells; host or cells: HEK293
T1 sequence (P10275 1-920): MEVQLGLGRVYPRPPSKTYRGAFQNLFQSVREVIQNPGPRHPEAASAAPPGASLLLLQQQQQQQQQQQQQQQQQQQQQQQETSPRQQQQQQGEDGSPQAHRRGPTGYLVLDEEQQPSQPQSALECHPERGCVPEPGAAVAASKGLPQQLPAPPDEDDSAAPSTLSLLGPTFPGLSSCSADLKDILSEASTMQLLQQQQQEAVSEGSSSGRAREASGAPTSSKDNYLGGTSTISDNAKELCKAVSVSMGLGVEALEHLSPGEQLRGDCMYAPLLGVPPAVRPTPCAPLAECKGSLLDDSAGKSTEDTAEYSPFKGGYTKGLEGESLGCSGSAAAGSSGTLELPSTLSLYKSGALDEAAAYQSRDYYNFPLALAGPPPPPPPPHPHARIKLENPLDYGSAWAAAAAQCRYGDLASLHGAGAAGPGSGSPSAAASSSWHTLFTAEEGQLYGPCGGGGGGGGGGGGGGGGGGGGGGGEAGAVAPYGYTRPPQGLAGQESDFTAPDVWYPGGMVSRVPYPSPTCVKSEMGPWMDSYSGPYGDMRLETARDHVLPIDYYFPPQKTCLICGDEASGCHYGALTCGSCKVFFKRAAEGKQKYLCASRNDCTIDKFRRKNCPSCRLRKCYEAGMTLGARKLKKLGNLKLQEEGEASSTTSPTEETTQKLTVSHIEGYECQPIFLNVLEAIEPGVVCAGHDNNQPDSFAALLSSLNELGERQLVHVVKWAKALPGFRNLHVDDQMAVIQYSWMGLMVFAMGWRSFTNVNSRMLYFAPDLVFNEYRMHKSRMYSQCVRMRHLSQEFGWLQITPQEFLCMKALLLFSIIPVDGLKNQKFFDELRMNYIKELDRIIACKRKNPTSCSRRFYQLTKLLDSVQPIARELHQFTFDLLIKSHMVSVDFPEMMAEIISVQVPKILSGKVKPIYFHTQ
Put plainly: Reporter assay of an androgen receptor responsive sequence (luciferase, transiently transfected HEK293 cells). The format is cell-based. To be noted: 24 hours incubation, relative to activity of 100 nM DHT, read-out: AR transcriptive activity (pEC50) (converted). The essentials: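 HEK293 cells transiently transfected for 3 h with ARE-firefly luciferase, full-length human AR and TK-Renilla plasmids, then exposed to compound for 24 h at 37 °C in 5% charcoal-treated FBS/DMEM. Dual-Glo luminescence read; pEC50 from 4-parameter fit relative to 100 nM DHT.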

The target of test [1] is T2, androgen receptor (AR-LBD) (Rattus norvegicus, UniProt P15207).
T2 construct: 5 μL of 2×AR-LBD/Fluoromone AL Red Complex contained in the kit; purchased Invitrogen
T2 sequence (P15207 651-882 limits assumed): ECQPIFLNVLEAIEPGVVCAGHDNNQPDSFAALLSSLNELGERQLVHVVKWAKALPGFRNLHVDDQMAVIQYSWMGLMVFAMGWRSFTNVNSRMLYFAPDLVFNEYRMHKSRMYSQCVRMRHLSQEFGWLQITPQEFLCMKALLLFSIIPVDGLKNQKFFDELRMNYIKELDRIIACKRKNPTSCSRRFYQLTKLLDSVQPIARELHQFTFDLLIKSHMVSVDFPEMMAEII
Nature of the test: Evaluation of androgen receptor affinity (PolarScreen Androgen Receptor Competitor Assay Kit, Red; fluorescence polarization). To be noted: 22° C. for 5 hours, relative to binding rate of 1 μM DHT, read-out: AR affinity (pEC50) (converted). Put shortly:
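Fluorescence polarization read-out after 5 h at 22° C of compound with a red-fluorophore-labelled AR-LBD complex. Displacement is scaled against 1 μM DHT, and the log reciprocal of the concentration reaching half that effect gives pEC50 via four-parameter curve fitting.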
(In general: Fluorescence polarisation rises when a labelled molecule tumbles more slowly, as on binding a larger partner.)

A value given as a limit tells only on which side of the number the result lay.

Take `CS(=O)(=O)NC(=O)c1nc(N(Cc2ccc(OC(F)(F)F)cc2)c2ccc(C#N)cc2)sc1Cl` [Example 274, 5-chloro-2-[4-cyano-N-[[4-(trifluoromethoxy)phenyl]methyl]anilino]-N-methylsulfonyl-thiazole-4-carboxamide]: the figures for the EC50 (at human androgen receptor; in test [1]) were 79.4 nM and 39.8 nM, respectively.
The matching figures for `CS(=O)(=O)NC(=O)c1nc(N(Cc2ccccc2OC(F)F)c2ccc(C#N)cc2)sc1Cl` [Example 275, 5-chloro-2-[4-cyano-N-[[2-(difluoromethoxy)phenyl]methyl]anilino]-N-methylsulfonyl-thiazole-4-carboxamide]: 316 nM and 63.1 nM.
For `CS(=O)(=O)NC(=O)c1nc(N(Cc2cccc(OC(F)F)c2)c2ccc(C#N)cc2)sc1Cl` [Example 276, 5-chloro-2-[4-cyano-N-[[3-(difluoromethoxy)phenyl]methyl]anilino]-N-methylsulfonyl-thiazole-4-carboxamide], in that order: 126 nM and 50.1 nM.
As for `CS(=O)(=O)NC(=O)c1nc(N(Cc2ccc(OC(F)F)cc2)c2ccc(C#N)cc2)sc1Cl` [Example 277, 5-chloro-2-[4-cyano-N-[[4-(difluoromethoxy)phenyl]methyl]anilino]-N-methylsulfonyl-thiazole-4-carboxamide], the EC50 on human androgen receptor is 50.1 nM; in test [1], 63.1 nM.
On to `CS(=O)(=O)NC(=O)c1nc(N(Cc2ccc3occc3c2)c2ccc(C#N)cc2)sc1Cl` [Example 279, 2-[N-(benzofuran-5-ylmethyl)-4-cyano-anilino]-5-chloro-N-methylsulfonyl-thiazole-4-carboxamide], for which the EC50 was 50.1 nM on human androgen receptor and 31.6 nM in test [1].
For `CS(=O)(=O)NC(=O)c1nc(N(Cc2cc3ccccc3s2)c2ccc(C#N)cc2)sc1Cl` [Example 280, 2-[N-(benzothiophen-2-ylmethyl)-4-cyano-anilino]-5-chloro-N-methylsulfonyl-thiazole-4-carboxamide], the EC50 at human androgen receptor was 25.1 nM; in test [1] it was 50.1 nM.
With `Cc1nc(CN(c2ccc(C#N)cc2)c2nc(C(=O)NS(C)(=O)=O)c(Br)s2)cs1` [Example 281, 5-bromo-2-[4-cyano-N-[(2-methylthiazol-4-yl)methyl]anilino]-N-methylsulfonyl-thiazole-4-carboxamide], the EC50 is 631 nM on human androgen receptor and 398 nM in test [1].
With `CS(=O)(=O)NC(=O)c1nc(N(Cc2ccc(F)cc2)c2ccc(C(F)(F)F)nc2)sc1Br` [Example 282, 5-bromo-2-[(4-fluorophenyl)methyl-[6-(trifluoromethyl)-3-pyridyl]amino]-N-methylsulfonyl-thiazole-4-carboxamide], the results for the EC50 (on human androgen receptor; in test [1]) were 316 nM and 39.8 nM, respectively.
For the compound `COCCCS(=O)(=O)NC(=O)c1nc(N(Cc2ccc(Cl)cn2)c2ccc(C#N)cc2)sc1C1CC1` [Example 283, 2-[N-[(5-chloro-2-pyridyl)methyl]-4-cyano-anilino]-5-cyclopropyl-N-(3-methoxypropylsulfonyl)thiazole-4-carboxamide], the EC50 at human androgen receptor was greater than 10000 nM; in test [1], 200 nM.
As to `CS(=O)(=O)NC(=O)c1nc(N(Cc2ccccc2)c2ccc(C#N)cc2)sc1C(F)F` [Example 284, 2-(N-benzyl-4-cyano-anilino)-5-(difluoromethyl)-N-methylsulfonyl-thiazole-4-carboxamide], the EC50 at human androgen receptor was greater than 10000 nM; in test [1], 126 nM.
For `Cc1oc(N(Cc2ccc(Br)cc2)c2ccc(C#N)cc2)nc1C(=O)NS(C)(=O)=O` [Example 285, 2-[N-[(4-bromophenyl)methyl]-4-cyano-anilino]-5-methyl-N-methylsulfonyl-oxazole-4-carboxamide], in that order: 200 nM and 50.1 nM.
For the compound `Cc1oc(N(Cc2ccc(Cl)cc2)c2ccc(C#N)cc2)nc1C(=O)NS(C)(=O)=O` [Example 286, 2-[N-[(4-chlorophenyl)methyl]-4-cyano-anilino]-5-methyl-N-methylsulfonyl-oxazole-4-carboxamide], the EC50 was 316 nM at human androgen receptor and 501 nM in test [1].
Regarding `Cc1sc(N(CCc2ccccc2)Cc2ccccc2)nc1C(=O)NS(C)(=O)=O` [Example 294, 2-[benzyl(2-phenylethyl)amino]-5-methyl-N-methylsulfonyl-thiazole-4-carboxamide], the results for the EC50 (at human androgen receptor; in test [1]) were 1000 nM and 100 nM, respectively.
`Cc1sc(N(CCC2CCCCC2)Cc2ccccc2)nc1C(=O)NS(C)(=O)=O` [Example 298, 2-[benzyl(2-cyclohexylethyl)amino]-5-methyl-N-methylsulfonyl-thiazole-4-carboxamide]: the EC50 was greater than 10000 nM on human androgen receptor and 100 nM in test [1].
For the compound `Cc1sc(N(CCc2ccc(Cl)cc2)Cc2ccccc2)nc1C(=O)NS(C)(=O)=O` [Example 299, 2-[benzyl-[2-(4-chlorophenyl)ethyl]amino]-5-methyl-N-methylsulfonyl-thiazole-4-carboxamide], the EC50 on human androgen receptor is 126 nM; in test [1], 31.6 nM.
For `Cc1sc(N(CCc2ccc(C#N)cc2)Cc2ccccc2)nc1C(=O)NS(C)(=O)=O` [Example 301, 2-[benzyl-[2-(4-cyanophenyl)ethyl]amino]-5-methyl-N-methylsulfonyl-thiazole-4-carboxamide], the EC50 is 158 nM at human androgen receptor and 50.1 nM in test [1].
For `Cc1sc(N(CCc2ccccc2Cl)Cc2ccccc2)nc1C(=O)NS(C)(=O)=O` [Example 303, 2-[benzyl-[2-(2-chlorophenyl)ethyl]amino]-5-methyl-N-methylsulfonyl-thiazole-4-carboxamide], in that order: greater than 10000 nM and 126 nM.
Regarding `Cc1sc(N(Cc2ccc(Cl)cc2)Cc2csc3cc(C#N)ccc23)nc1C(=O)NS(C)(=O)=O` [Example 305, 2-[(4-chlorophenyl)methyl-[(6-cyanobenzothiophen-3-yl)methyl]amino]-5-methyl-N-methylsulfonyl-thiazole-4-carboxamide], the EC50 at human androgen receptor is greater than 10000 nM; in test [1], greater than 2000 nM.
`Cc1sc(N(CCc2ccc(C#N)cc2)Cc2ccc(Cl)cc2)nc1C(=O)NS(C)(=O)=O` [Example 306, 2-[(4-chlorophenyl)methyl-[2-(4-cyanophenyl)ethyl]amino]-5-methyl-N-methylsulfonyl-thiazole-4-carboxamide]: the EC50 on human androgen receptor is 100 nM; in test [1], 31.6 nM.
Take `COc1cccc(CCN(Cc2ccccc2)c2nc(C(=O)NS(C)(=O)=O)c(C)s2)c1` [Example 308, 2-[benzyl-[2-(3-methoxyphenyl)ethyl]amino]-5-methyl-N-methylsulfonyl-thiazole-4-carboxamide]: the EC50 was 5010 nM on human androgen receptor and 79.4 nM in test [1].
`Cc1sc(N(CCc2cccs2)Cc2ccccc2)nc1C(=O)NS(C)(=O)=O` [Example 310, 2-[benzyl-[2-(2-thienyl)ethyl]amino]-5-methyl-N-methylsulfonyl-thiazole-4-carboxamide]: the EC50 at human androgen receptor was 2510 nM; in test [1] it was 200 nM.
As for `Cc1sc(N(CCc2ccsc2)Cc2ccccc2)nc1C(=O)NS(C)(=O)=O` [Example 313, 2-[benzyl-[2-(3-thienyl)ethyl]amino]-5-methyl-N-methylsulfonyl-thiazole-4-carboxamide], the EC50 on human androgen receptor was 1000 nM; in test [1], 158 nM.
Turning to `Cc1sc(N(CCc2ccc(Cl)cc2Cl)Cc2ccccc2)nc1C(=O)NS(C)(=O)=O` [Example 315, 2-[benzyl-[2-(2,4-dichlorophenyl)ethyl]amino]-5-methyl-N-methylsulfonyl-thiazole-4-carboxamide], the EC50 on human androgen receptor was 158 nM; in test [1] it was 79.4 nM.

The values are drawn from patent publication US10689354B2, “Aminoazole derivative” (Teijin Pharma Limited, priority 2015, dated 2020).
